Reference: BindingDB's records for doi:10.1016/j.bmc.2021.116220 (University of Colorado Anschutz Medical Campus, 2021)

Assay: Inhibition of RSK2 in human MOLM-13 assessed as reduction in cell viability measured after 72 hrs by MTS assay

Structure (SMILES)	EC50 [nM]
CC(C)CCn1cnc2cnc(Nc3cc(F)c(O)c(F)c3)nc21	970
Oc1c(F)cc(Nc2ncc3ncn(-c4ccc(CCN5CCOCC5)cc4)c3n2)cc1F	1900
COC(=O)CCCc1ccc(-n2cnc3cnc(Nc4cc(F)c(O)c(F)c4)nc32)cc1	13900
CC(C)CCn1ccc2cnc(Nc3cc(F)c(O)c(F)c3)nc21	1300
Oc1c(F)cc(Nc2ncc3ccn(-c4ccc(N5CCOCC5)cc4)c3n2)cc1F	230
CN1CCN(c2ccc(-n3ccc4cnc(Nc5cc(F)c(O)c(F)c5)nc43)cc2)CC1	70
